Assay results: patent publication US10160747B2, “Compounds and methods for kinase modulation, and indications therefor” (Plexxikon Inc., priority 2016, dated 2018)

Legend:
FLT3-ITD = target: T1, FLT3-ITD (Homo sapiens, UniProt P36888); assay: FLT3-ITD recombinant enzyme kinase assay (AlphaScreen); assay type: biochemical; conditions: 8 pt; read-out: FLT3_ITD 8 pt: IC50
T1 sequence (P36888 1-993): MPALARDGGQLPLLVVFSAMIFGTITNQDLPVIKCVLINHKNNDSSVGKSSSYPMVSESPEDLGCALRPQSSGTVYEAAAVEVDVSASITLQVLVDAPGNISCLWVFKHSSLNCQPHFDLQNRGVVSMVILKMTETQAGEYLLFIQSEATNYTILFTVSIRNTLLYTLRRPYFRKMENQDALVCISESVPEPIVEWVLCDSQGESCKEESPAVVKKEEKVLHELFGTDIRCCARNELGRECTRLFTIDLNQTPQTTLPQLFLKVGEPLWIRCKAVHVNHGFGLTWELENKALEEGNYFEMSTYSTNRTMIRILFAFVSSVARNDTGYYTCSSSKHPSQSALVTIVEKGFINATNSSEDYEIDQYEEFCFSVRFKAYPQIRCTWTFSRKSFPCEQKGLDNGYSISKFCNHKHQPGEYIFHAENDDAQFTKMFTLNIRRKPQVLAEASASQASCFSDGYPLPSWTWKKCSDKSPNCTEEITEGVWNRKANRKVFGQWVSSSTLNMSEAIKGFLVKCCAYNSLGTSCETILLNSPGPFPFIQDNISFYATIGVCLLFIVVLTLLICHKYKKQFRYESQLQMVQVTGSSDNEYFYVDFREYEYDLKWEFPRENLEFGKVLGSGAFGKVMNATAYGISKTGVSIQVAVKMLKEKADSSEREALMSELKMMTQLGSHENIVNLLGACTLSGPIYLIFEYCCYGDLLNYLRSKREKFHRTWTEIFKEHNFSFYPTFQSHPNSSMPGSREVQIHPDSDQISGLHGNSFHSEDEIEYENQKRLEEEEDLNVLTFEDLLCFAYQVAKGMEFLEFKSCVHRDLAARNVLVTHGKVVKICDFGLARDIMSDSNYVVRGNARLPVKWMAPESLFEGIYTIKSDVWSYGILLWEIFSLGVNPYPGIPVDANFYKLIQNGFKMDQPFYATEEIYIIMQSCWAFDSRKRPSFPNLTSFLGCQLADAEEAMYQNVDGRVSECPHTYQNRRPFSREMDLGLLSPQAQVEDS
Outline: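 Recombinant enzyme phosphorylated biotinylated poly(Glu4-Tyr) peptide (30 nM final) with ATP at 10 μM for FLT3-ITD and FLT3-D835Y or 100 μM for c-KIT. Phosphopeptide was detected by AlphaScreen with streptavidin donor and anti-phosphotyrosine (PY20) acceptor beads (10 μg/mL), read at 580 nm, for IC50 determination.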

[1] = test system: MOLM-14 F691L (endogenous FLT3 ITD and transfected FLT3 F691L); assay: MOLM-14 F691L cell proliferation assay (CellTiter-Glo); assay type: cell-based; conditions: Homo sapiens, MOLM-14, 72 h; 3 d growth, GMean
Outline: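 MOLM-14 cells (FLT3 ITD) carrying D835Y or F691L, 1×10^4 cells/well, eight 1:3 dilutions from 1 μM final, 0.2% DMSO, 3 days at 37 °C, 5% CO2. Viability by CellTiter-Glo luminescence (ATP content); IC50 from concentration-response.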

COc1ncc(NC(=O)Cc2ccc(-c3cnc4[nH]nc(Cl)c4c3)cc2)cc1C(F)(F)F [Compound P-0230, 2-[4-(3-chloro-1H-pyrazolo[3,4-b]pyridin-5-yl)phenyl]-N-[6-methoxy-5-(trifluoromethyl)-3-pyridyl]acetamide]
IC50 (FLT3-ITD): 0.0001 to 10 µM
IC50 [1]: 0.0001 to 10 µM

O=C(Cc1ccc(-c2cnc(Nc3cnn(C4CC4)c3)nc2)cc1)Nc1cncc(C(F)(F)F)c1 [Compound P-0231, 2-[4-[2-[(1-cyclopropylpyrazol-4-yl)amino]pyrimidin-5-yl]phenyl]-N-[5-(trifluoromethyl)-3-pyridyl]acetamide]
IC50 (FLT3-ITD): 0.0001 to 10 µM
IC50 [1]: 0.0001 to 10 µM

Cc1ncc(NC(=O)Cc2ccc(-c3cnc(Nc4cnn(C5CC5)c4)nc3)cc2)cc1C(F)(F)F [Compound P-0232, 2-[4-[2-[(1-cyclopropylpyrazol-4-yl)amino]pyrimidin-5-yl]phenyl]-N-[6-methyl-5-(trifluoromethyl)-3-pyridyl]acetamide]
IC50 (FLT3-ITD): 0.0001 to 10 µM
IC50 [1]: 0.0001 to 10 µM

O=C(Cc1ccc(-c2cnc(Nc3cnn(C4CC4)c3)nc2)cc1)Nc1cnc(Cl)c(C(F)(F)F)c1 [Compound P-0233, N-[6-chloro-5-(trifluoromethyl)-3-pyridyl]-2-[4-[2-[(1-cyclopropylpyrazol-4-yl)amino]pyrimidin-5-yl]phenyl]acetamide]
IC50 (FLT3-ITD): 0.0001 to 10 µM
IC50 [1]: 0.0001 to 10 µM

COc1ncc(NC(=O)Cc2ccc(-c3cnc(Nc4cnn(C5CC5)c4)nc3)cc2)cc1C(F)(F)F [Compound P-0234, 2-[4-[2-[(1-cyclopropylpyrazol-4-yl)amino]pyrimidin-5-yl]phenyl]-N-[6-methoxy-5-(trifluoromethyl)-3-pyridyl]acetamide]
IC50 (FLT3-ITD): 0.0001 to 10 µM
IC50 [1]: 0.0001 to 10 µM

O=C(Cc1ccc(-c2cnc(Nc3cnn(C4CC4)c3)nc2)cc1)Nc1ccc(C(F)(F)F)nc1 [Compound P-0235, 2-[4-[2-[(1-cyclopropylpyrazol-4-yl)amino]pyrimidin-5-yl]phenyl]-N-[6-(trifluoromethyl)-3-pyridyl]acetamide]
IC50 (FLT3-ITD): 0.0001 to 10 µM
IC50 [1]: 0.0001 to 10 µM

O=C(Cc1ccc(-c2cnc(Nc3cnn(C4CC4)c3)nc2)cc1)Nc1ccc(C(F)(F)F)cn1 [Compound P-0236, 2-[4-[2-[(1-cyclopropylpyrazol-4-yl)amino]pyrimidin-5-yl]phenyl]-N-[5-(trifluoromethyl)-2-pyridyl]acetamide]
IC50 (FLT3-ITD): 0.0001 to 10 µM
IC50 [1]: 0.0001 to 10 µM

O=C(Cc1ccc(-c2cnc(Nc3cnn(C4CC4)c3)nc2)cc1)Nc1cc(C(F)(F)F)ccn1 [Compound P-0237, 2-[4-[2-[(1-cyclopropylpyrazol-4-yl)amino]pyrimidin-5-yl]phenyl]-N-[4-(trifluoromethyl)-2-pyridyl]acetamide]
IC50 (FLT3-ITD): 0.0001 to 10 µM
IC50 [1]: 0.0001 to 10 µM

O=C(Cc1ccc(-c2cnc(Nc3cnn(C4CC4)c3)nc2)cc1F)Nc1cncc(C(F)(F)F)c1 [Compound P-0238, 2-[4-[2-[(1-cyclopropylpyrazol-4-yl)amino]pyrimidin-5-yl]-2-fluoro-phenyl]-N-[5-(trifluoromethyl)-3-pyridyl]acetamide]
IC50 (FLT3-ITD): 0.0001 to 10 µM
IC50 [1]: 0.0001 to 10 µM

Cc1ncc(NC(=O)Cc2ccc(-c3cnc(Nc4cnn(C5CC5)c4)nc3)cc2F)cc1C(F)(F)F [Compound P-0239, 2-[4-[2-[(1-cyclopropylpyrazol-4-yl)amino]pyrimidin-5-yl]-2-fluoro-phenyl]-N-[6-methyl-5-(trifluoromethyl)-3-pyridyl]acetamide]
IC50 (FLT3-ITD): 0.0001 to 10 µM
IC50 [1]: 0.0001 to 10 µM

O=C(Cc1ccc(-c2cnc(Nc3cnn(C4CC4)c3)nc2)cc1F)Nc1cnc(Cl)c(C(F)(F)F)c1 [Compound P-0240, N-[6-chloro-5-(trifluoromethyl)-3-pyridyl]-2-[4-[2-[(1-cyclopropylpyrazol-4-yl)amino]pyrimidin-5-yl]-2-fluoro-phenyl]acetamide]
IC50 (FLT3-ITD): 0.0001 to 10 µM
IC50 [1]: 0.0001 to 10 µM

COc1ncc(NC(=O)Cc2ccc(-c3cnc(Nc4cnn(C5CC5)c4)nc3)cc2F)cc1C(F)(F)F [Compound P-0241, 2-[4-[2-[(1-cyclopropylpyrazol-4-yl)amino]pyrimidin-5-yl]-2-fluoro-phenyl]-N-[6-methoxy-5-(trifluoromethyl)-3-pyridyl]acetamide]
IC50 (FLT3-ITD): 0.0001 to 10 µM
IC50 [1]: 0.0001 to 10 µM

O=C(Cc1ccc(-c2cnc(Nc3cnn(C4CC4)c3)nc2)cc1F)Nc1ccc(C(F)(F)F)nc1 [Compound P-0242, 2-[4-[2-[(1-cyclopropylpyrazol-4-yl)amino]pyrimidin-5-yl]-2-fluoro-phenyl]-N-[6-(trifluoromethyl)-3-pyridyl]acetamide]
IC50 (FLT3-ITD): 0.0001 to 10 µM
IC50 [1]: 0.0001 to 10 µM

O=C(Cc1ccc(-c2cnc(Nc3cnn(C4CC4)c3)nc2)cc1F)Nc1ccc(C(F)(F)F)cn1 [Compound P-0243, 2-[4-[2-[(1-cyclopropylpyrazol-4-yl)amino]pyrimidin-5-yl]-2-fluoro-phenyl]-N-[5-(trifluoromethyl)-2-pyridyl]acetamide]
IC50 (FLT3-ITD): 0.0001 to 10 µM
IC50 [1]: 0.0001 to 10 µM

O=C(Cc1ccc(-c2cnc(Nc3cnn(C4CC4)c3)nc2)cc1F)Nc1cc(C(F)(F)F)ccn1 [Compound P-0244, 2-[4-[2-[(1-cyclopropylpyrazol-4-yl)amino]pyrimidin-5-yl]-2-fluoro-phenyl]-N-[4-(trifluoromethyl)-2-pyridyl]acetamide]
IC50 (FLT3-ITD): 0.0001 to 10 µM
IC50 [1]: 0.0001 to 10 µM

CCn1cc(Nc2ncc(-c3ccc(CC(=O)Nc4cc(C(F)(F)F)ccn4)cc3)cn2)cn1 [Compound P-0250, 2-[4-[2-[(1-ethylpyrazol-4-yl)amino]pyrimidin-5-yl]phenyl]-N-[4-(trifluoromethyl)-2-pyridyl]acetamide]
IC50 (FLT3-ITD): 0.0001 to 10 µM
IC50 [1]: 0.0001 to 10 µM

CCn1cc(Nc2ncc(-c3ccc(CC(=O)Nc4ccc(C(F)(F)F)cn4)cc3)cn2)cn1 [Compound P-0251, 2-[4-[2-[(1-ethylpyrazol-4-yl)amino]pyrimidin-5-yl]phenyl]-N-[5-(trifluoromethyl)-2-pyridyl]acetamide]
IC50 (FLT3-ITD): 0.0001 to 10 µM
IC50 [1]: 0.0001 to 10 µM

CCn1cc(Nc2ncc(-c3ccc(CC(=O)Nc4ccc(C(F)(F)F)nc4)cc3)cn2)cn1 [Compound P-0252, 2-[4-[2-[(1-ethylpyrazol-4-yl)amino]pyrimidin-5-yl]phenyl]-N-[6-(trifluoromethyl)-3-pyridyl]acetamide]
IC50 (FLT3-ITD): 0.0001 to 10 µM
IC50 [1]: 0.0001 to 10 µM

CCn1cc(Nc2ncc(-c3ccc(CC(=O)Nc4cnc(OC)c(C(F)(F)F)c4)cc3)cn2)cn1 [Compound P-0253, 2-[4-[2-[(1-ethylpyrazol-4-yl)amino]pyrimidin-5-yl]phenyl]-N-[6-methoxy-5-(trifluoromethyl)-3-pyridyl]acetamide]
IC50 (FLT3-ITD): 0.0001 to 10 µM
IC50 [1]: 0.0001 to 10 µM

CCn1cc(Nc2ncc(-c3ccc(CC(=O)Nc4cnc(C)c(C(F)(F)F)c4)cc3)cn2)cn1 [Compound P-0254, 2-[4-[2-[(1-ethylpyrazol-4-yl)amino]pyrimidin-5-yl]phenyl]-N-[6-methyl-5-(trifluoromethyl)-3-pyridyl]acetamide]
IC50 (FLT3-ITD): 0.0001 to 10 µM
IC50 [1]: 0.0001 to 10 µM

CCn1cc(Nc2ncc(-c3ccc(CC(=O)Nc4cc(C(F)(F)F)ccn4)c(F)c3)cn2)cn1 [Compound P-0255, 2-[4-[2-[(1-ethylpyrazol-4-yl)amino]pyrimidin-5-yl]-2-fluoro-phenyl]-N-[4-(trifluoromethyl)-2-pyridyl]acetamide]
IC50 (FLT3-ITD): 0.0001 to 10 µM
IC50 [1]: 0.0001 to 10 µM

CCn1cc(Nc2ncc(-c3ccc(CC(=O)Nc4ccc(C(F)(F)F)cn4)c(F)c3)cn2)cn1 [Compound P-0256, 2-[4-[2-[(1-ethylpyrazol-4-yl)amino]pyrimidin-5-yl]-2-fluoro-phenyl]-N-[5-(trifluoromethyl)-2-pyridyl]acetamide]
IC50 (FLT3-ITD): 0.0001 to 10 µM
IC50 [1]: 0.0001 to 10 µM

CCn1cc(Nc2ncc(-c3ccc(CC(=O)Nc4ccc(C(F)(F)F)nc4)c(F)c3)cn2)cn1 [Compound P-0257, 2-[4-[2-[(1-ethylpyrazol-4-yl)amino]pyrimidin-5-yl]-2-fluoro-phenyl]-N-[6-(trifluoromethyl)-3-pyridyl]acetamide]
IC50 (FLT3-ITD): 0.0001 to 10 µM
IC50 [1]: 0.0001 to 10 µM
